Columns and labels:
[1] = test system: barnyardgrass; experiment: Test A preemergence; assay type: in vivo, Echinochloa crus-galli; conditions: for Barnyardgrass plant response rating (0 to 100 scale, 0 is no effect, 100 is complete control): 125 g ai/ha; for Barnyardgrass plant response rating: 500 g ai/ha, 0 to 100 scale where 0 is no effect and 100 is complete control
In short: (§1)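 Injury scores run from 0, no effect, to 100, complete control, judged by eye against untreated plants roughly 10 days after treatment. Chemicals carried a surfactant in a non-phytotoxic solvent and went onto loam–sand soil preemergence or onto one- to two-leaf seedlings postemergence.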

[2] = test system: large (Lg) crabgrass; experiment: Test A preemergence; assay type: in vivo, Digitaria sanguinalis; conditions: for Crabgrass, Large plant response rating (0 to 100 scale): 125 g ai/ha; for Crabgrass, Large plant response rating: 500 g ai/ha, 0 to 100 scale where 0 is no effect and 100 is complete control
In short: as §1

[3] = test system: giant foxtail; experiment: Test A preemergence; assay type: in vivo, Setaria faberii; conditions: for Foxtail, Giant plant response rating (0 to 100 scale): 125 g ai/ha; for Foxtail, Giant plant response rating: 500 g ai/ha, 0 to 100 scale where 0 is no effect and 100 is complete control
In short: as §1

[4] = test system: morningglory; experiment: Test A preemergence; assay type: in vivo, Ipomoea spp.; conditions: for Morningglory plant response rating (0 to 100 scale): 125 g ai/ha; for Morningglory plant response rating: 500 g ai/ha, 0 to 100 scale where 0 is no effect and 100 is complete control
In short: as §1

[5] = test system: pigweed; experiment: Test A preemergence; assay type: in vivo, Amaranthus retroflexus; conditions: for Pigweed plant response rating (0 to 100 scale): 125 g ai/ha; for Pigweed plant response rating: 500 g ai/ha, 0 to 100 scale where 0 is no effect and 100 is complete control
In short: as §1

[6] = test system: velvetleaf; experiment: Test A preemergence; assay type: in vivo, Abutilon theophrasti; conditions: for Velvetleaf plant response rating (0 to 100 scale): 125 g ai/ha; for Velvetleaf plant response rating: 500 g ai/ha, 0 to 100 scale where 0 is no effect and 100 is complete control
In short: as §1

[7] = test system: wheat; experiment: Test A preemergence; assay type: in vivo, Triticum aestivum; conditions: for Wheat plant response rating (0 to 100 scale): 125 g ai/ha; for Wheat plant response rating: 500 g ai/ha, 0 to 100 scale where 0 is no effect and 100 is complete control
In short: as §1

[8] = test system: corn; experiment: Test A preemergence; assay type: in vivo, Zea mays; conditions: for Corn plant response rating (0 to 100 scale): 125 g ai/ha; for Corn plant response rating: 500 g ai/ha, 0 to 100 scale where 0 is no effect and 100 is complete control
In short: as §1

[9] = test system: barnyardgrass; experiment: Test A postemergence; assay type: in vivo, Echinochloa crus-galli; conditions: 0 to 100 scale where 0 is no effect and 100 is complete control; for Barnyardgrass plant response rating: 125 g ai/ha; for Plant response rating, Barnyardgrass: 500 g ai/ha
In short: as §1

[10] = test system: large (Lg) crabgrass; experiment: Test A postemergence; assay type: in vivo, Digitaria sanguinalis; conditions: 0 to 100 scale where 0 is no effect and 100 is complete control; for Crabgrass, Large plant response rating: 125 g ai/ha; for Plant response rating, Crabgrass, Large: 500 g ai/ha
In short: as §1

[11] = test system: giant foxtail; experiment: Test A postemergence; assay type: in vivo, Setaria faberii; conditions: 0 to 100 scale where 0 is no effect and 100 is complete control; for Foxtail, Giant plant response rating: 125 g ai/ha; for Plant response rating, Foxtail, Giant: 500 g ai/ha
In short: as §1

[12] = test system: morningglory; experiment: Test A postemergence; assay type: in vivo, Ipomoea spp.; conditions: 0 to 100 scale where 0 is no effect and 100 is complete control; for Morningglory plant response rating: 125 g ai/ha; for Plant response rating, Morningglory: 500 g ai/ha
In short: as §1

[13] = test system: pigweed; experiment: Test A postemergence; assay type: in vivo, Amaranthus retroflexus; conditions: 0 to 100 scale where 0 is no effect and 100 is complete control; for Pigweed plant response rating: 125 g ai/ha; for Plant response rating, Pigweed: 500 g ai/ha
In short: as §1

[14] = test system: velvetleaf; experiment: Test A postemergence; assay type: in vivo, Abutilon theophrasti; conditions: 0 to 100 scale where 0 is no effect and 100 is complete control; for Velvetleaf plant response rating: 125 g ai/ha; for Plant response rating, Velvetleaf: 500 g ai/ha
In short: as §1

[15] = test system: wheat; experiment: Test A postemergence; assay type: in vivo, Triticum aestivum; conditions: 0 to 100 scale where 0 is no effect and 100 is complete control; for Wheat plant response rating: 125 g ai/ha; for Plant response rating, Wheat: 500 g ai/ha
In short: as §1

[16] = test system: corn; experiment: Test A postemergence; assay type: in vivo, Zea mays; conditions: 0 to 100 scale where 0 is no effect and 100 is complete control; for Corn plant response rating: 125 g ai/ha; for Plant response rating, Corn: 500 g ai/ha
In short: as §1

[17] = test system: rice; experiment: Test B flooded paddy test; assay type: in vivo, Oryza sativa; conditions: Flood, 250 g ai/ha; 0 to 100 scale where 0 is no effect and 100 is complete control
In short: (§2)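 Seedlings are raised to two leaves, flooded to a depth of 3 cm and dosed by adding the compound to the floodwater. Water level is kept constant, and plants are scored visually versus controls 13–15 days later (0 = no effect, 100 = complete control).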

[18] = test system: sedge, umbrella; experiment: Test B flooded paddy test; assay type: in vivo, Cyperus difformis; conditions: Flood, 250 g ai/ha; 0 to 100 scale where 0 is no effect and 100 is complete control
In short: as §2

[19] = test system: Heteranthera limosa; experiment: Test B flooded paddy test; assay type: in vivo; conditions: Flood, 250 g ai/ha; 0 to 100 scale where 0 is no effect and 100 is complete control
In short: as §2

[20] = test system: barnyardgrass; experiment: Test B flooded paddy test; assay type: in vivo, Echinochloa crus-galli; conditions: Flood, 250 g ai/ha; 0 to 100 scale where 0 is no effect and 100 is complete control
In short: as §2

For Fc1cc(Oc2ncc(Cl)cn2)c(-n2cc(Br)cn2)cc1F [Compound 196], the “Barnyardgrass plant response rating (0 to 100 scale, 0 is no effect, 100 is complete control)” value [1] was 0, the “Barnyardgrass plant response rating” value [1] was 40 and the “Crabgrass, Large plant response rating (0 to 100 scale)” value [2] was 60. The “Crabgrass, Large plant response rating” value [2] was 100, the “Foxtail, Giant plant response rating (0 to 100 scale)” value [3] was 50 and the “Foxtail, Giant plant response rating” value [3] was 90. The “Morningglory plant response rating (0 to 100 scale)” value [4] was 0, the “Morningglory plant response rating” value [4] was 0 and the “Pigweed plant response rating (0 to 100 scale)” value [5] was 90. The “Pigweed plant response rating” value [5] was 100, the “Velvetleaf plant response rating (0 to 100 scale)” value [6] was 20 and the “Velvetleaf plant response rating” value [6] was 40. For the same compound, the “Wheat plant response rating (0 to 100 scale)” value [7] was 0, the “Wheat plant response rating” value [7] was 0 and the “Corn plant response rating (0 to 100 scale)” value [8] was 0. The “Corn plant response rating” value [8] was 0, the “Barnyardgrass plant response rating” value [9] was 10 and the “Plant response rating, Barnyardgrass” value [9] was 50. The “Crabgrass, Large plant response rating” value [10] was 30, the “Plant response rating, Crabgrass, Large” value [10] was 90 and the “Foxtail, Giant plant response rating” value [11] was 30. For the same compound, the “Plant response rating, Foxtail, Giant” value [11] was 80, the “Morningglory plant response rating” value [12] was 20 and the “Plant response rating, Morningglory” value [12] was 80. For the same compound, the “Pigweed plant response rating” value [13] was 100, the “Plant response rating, Pigweed” value [13] was 100 and the “Velvetleaf plant response rating” value [14] was 100. The “Plant response rating, Velvetleaf” value [14] was 100, the “Wheat plant response rating” value [15] was 0 and the “Plant response rating, Wheat” value [15] was 10. For the same compound, the “Corn plant response rating” value [16] was 10, the “Plant response rating, Corn” value [16] was 40 and the “Plant response rating, Rice” value [17] was 0. For the same compound, the “Plant response rating, Sedge, Umbrella” value [18] was 70, the “Plant response rating, Ducksalad” value [19] was 85 and the “Plant response rating, Barnyardgrass” value [20] was 20.
For N#Cc1cnc(Oc2ccccc2-n2cccn2)nc1 [Compound 226], the “Barnyardgrass plant response rating (0 to 100 scale, 0 is no effect, 100 is complete control)” value [1] was 0, the “Barnyardgrass plant response rating” value [1] was 0 and the “Crabgrass, Large plant response rating (0 to 100 scale)” value [2] was 0. The “Crabgrass, Large plant response rating” value [2] was 0, the “Foxtail, Giant plant response rating (0 to 100 scale)” value [3] was 0 and the “Foxtail, Giant plant response rating” value [3] was 0. For the same compound, the “Morningglory plant response rating (0 to 100 scale)” value [4] was 0, the “Morningglory plant response rating” value [4] was 0 and the “Pigweed plant response rating (0 to 100 scale)” value [5] was 0. For the same compound, the “Pigweed plant response rating” value [5] was 0, the “Velvetleaf plant response rating (0 to 100 scale)” value [6] was 0 and the “Velvetleaf plant response rating” value [6] was 0. The “Wheat plant response rating (0 to 100 scale)” value [7] was 0, the “Wheat plant response rating” value [7] was 0 and the “Corn plant response rating (0 to 100 scale)” value [8] was 0. For the same compound, the “Corn plant response rating” value [8] was 0, the “Barnyardgrass plant response rating” value [9] was 0 and the “Plant response rating, Barnyardgrass” value [9] was 0. For the same compound, the “Crabgrass, Large plant response rating” value [10] was 0, the “Plant response rating, Crabgrass, Large” value [10] was 0 and the “Foxtail, Giant plant response rating” value [11] was 0. For the same compound, the “Plant response rating, Foxtail, Giant” value [11] was 0, the “Morningglory plant response rating” value [12] was 0 and the “Plant response rating, Morningglory” value [12] was 0. For the same compound, the “Pigweed plant response rating” value [13] was 0, the “Plant response rating, Pigweed” value [13] was 10 and the “Velvetleaf plant response rating” value [14] was 0. The “Plant response rating, Velvetleaf” value [14] was 10, the “Wheat plant response rating” value [15] was 0 and the “Plant response rating, Wheat” value [15] was 0. The “Corn plant response rating” value [16] was 0, the “Plant response rating, Corn” value [16] was 0 and the “Plant response rating, Rice” value [17] was 0. The “Plant response rating, Sedge, Umbrella” value [18] was 0, the “Plant response rating, Ducksalad” value [19] was 0 and the “Plant response rating, Barnyardgrass” value [20] was 0.

— patent US9695155B2, “Herbicidal substituted pyrimidinyloxy benzene compounds” (E. I. DU PONT DE NEMOURS AND COMPANY, priority 2013, dated 2017)
